The values below come from article PMC5564600 (Oncotarget, 2017).

Holding throughout (assay): biochemical
What all share (format): binding

The target of experiment [1] is T1, panel of 442 kinases (Homo sapiens, UniProt P22455).
T1 construct: purchased Ambit Biosciences (scanMAXX KINOMEscan)
The conditions noted are these: FGFR4; for remaining activity at 1 µM: read-out: % of control at 1 µM.

Experiment [2] addresses T2, panel of 442 kinases (Homo sapiens, UniProt Q13233).
T2 construct: purchased Ambit Biosciences (scanMAXX KINOMEscan)
The conditions noted are these: kinase MAP3K1; for remaining activity at 1 µM: read-out: % of control at 1 µM.

Experiment [3] concerns the target T3, panel of 442 kinases (Homo sapiens, UniProt Q13131).
T3 construct: purchased Ambit Biosciences (scanMAXX KINOMEscan)
The conditions noted are these: AMPK-alpha1; for remaining activity at 1 µM: read-out: % of control at 1 µM.

The target of experiment [4] is T4, panel of 442 kinases (Homo sapiens, UniProt Q8NEV4).
T4 construct: purchased Ambit Biosciences (scanMAXX KINOMEscan)
The conditions noted are these: kinase MYO3A; for remaining activity at 1 µM: read-out: % of control at 1 µM.

Experiment [5] addresses T5, panel of 442 kinases (Homo sapiens, UniProt Q13555).
T5 construct: purchased Ambit Biosciences (scanMAXX KINOMEscan)
The conditions noted are these: CAMK2G; for remaining activity at 1 µM: read-out: % of control at 1 µM.

The target in experiment [6] is T6, panel of 442 kinases (Homo sapiens, UniProt P06241).
T6 construct: purchased Ambit Biosciences (scanMAXX KINOMEscan)
The conditions noted are these: kinase FYN; for remaining activity at 1 µM: read-out: % of control at 1 µM.

The target of experiment [7] is T7, panel of 442 kinases (Homo sapiens, UniProt Q02156).
T7 construct: purchased Ambit Biosciences (scanMAXX KINOMEscan)
T7 sequence (Q02156 1-737): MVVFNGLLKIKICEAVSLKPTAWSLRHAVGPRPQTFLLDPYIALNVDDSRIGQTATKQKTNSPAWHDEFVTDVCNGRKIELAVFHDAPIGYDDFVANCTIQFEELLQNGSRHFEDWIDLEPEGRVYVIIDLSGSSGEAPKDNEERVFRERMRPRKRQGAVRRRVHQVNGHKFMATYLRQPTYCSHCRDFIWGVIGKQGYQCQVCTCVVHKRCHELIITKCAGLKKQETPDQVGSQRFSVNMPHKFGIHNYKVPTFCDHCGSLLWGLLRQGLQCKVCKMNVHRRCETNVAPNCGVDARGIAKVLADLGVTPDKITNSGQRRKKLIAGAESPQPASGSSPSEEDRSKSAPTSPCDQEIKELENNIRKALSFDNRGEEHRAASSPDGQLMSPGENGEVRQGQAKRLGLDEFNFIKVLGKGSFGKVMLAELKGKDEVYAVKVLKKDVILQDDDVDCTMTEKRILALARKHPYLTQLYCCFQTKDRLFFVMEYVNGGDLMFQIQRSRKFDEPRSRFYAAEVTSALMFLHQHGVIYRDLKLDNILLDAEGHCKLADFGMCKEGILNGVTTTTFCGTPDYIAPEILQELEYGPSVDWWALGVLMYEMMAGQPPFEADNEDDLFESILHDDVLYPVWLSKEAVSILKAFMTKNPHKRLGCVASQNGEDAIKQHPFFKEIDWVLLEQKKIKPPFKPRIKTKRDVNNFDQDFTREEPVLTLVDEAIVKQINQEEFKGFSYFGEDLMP
The conditions noted are these: kinase PRKCE; for remaining activity at 1 µM: read-out: PRKCE (% of control at 1 µM).

In experiment [8] the target is T8, panel of 442 kinases (Homo sapiens, UniProt P36896).
T8 construct: purchased Ambit Biosciences (scanMAXX KINOMEscan)
T8 sequence (P36896 24-505): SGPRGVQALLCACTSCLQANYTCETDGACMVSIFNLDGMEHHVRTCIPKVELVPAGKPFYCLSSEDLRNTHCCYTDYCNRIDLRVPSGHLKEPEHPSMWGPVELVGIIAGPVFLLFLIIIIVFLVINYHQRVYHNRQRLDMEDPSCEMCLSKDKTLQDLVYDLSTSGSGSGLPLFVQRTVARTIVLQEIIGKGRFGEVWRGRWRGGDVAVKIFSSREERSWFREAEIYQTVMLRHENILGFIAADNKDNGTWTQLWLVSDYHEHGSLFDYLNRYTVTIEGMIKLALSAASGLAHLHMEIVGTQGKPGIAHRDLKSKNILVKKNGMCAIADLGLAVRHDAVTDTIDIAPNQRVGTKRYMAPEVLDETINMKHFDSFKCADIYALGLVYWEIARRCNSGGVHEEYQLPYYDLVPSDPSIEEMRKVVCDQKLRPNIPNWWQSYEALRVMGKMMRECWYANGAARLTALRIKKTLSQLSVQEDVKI
The conditions noted are these: ACVR1B; for remaining activity at 1 µM: read-out: % of control at 1 µM.

Experiment [9] has as its target T9, panel of 442 kinases (Homo sapiens, UniProt O15197).
T9 construct: purchased Ambit Biosciences (scanMAXX KINOMEscan)
T9 sequence (O15197 32-1021): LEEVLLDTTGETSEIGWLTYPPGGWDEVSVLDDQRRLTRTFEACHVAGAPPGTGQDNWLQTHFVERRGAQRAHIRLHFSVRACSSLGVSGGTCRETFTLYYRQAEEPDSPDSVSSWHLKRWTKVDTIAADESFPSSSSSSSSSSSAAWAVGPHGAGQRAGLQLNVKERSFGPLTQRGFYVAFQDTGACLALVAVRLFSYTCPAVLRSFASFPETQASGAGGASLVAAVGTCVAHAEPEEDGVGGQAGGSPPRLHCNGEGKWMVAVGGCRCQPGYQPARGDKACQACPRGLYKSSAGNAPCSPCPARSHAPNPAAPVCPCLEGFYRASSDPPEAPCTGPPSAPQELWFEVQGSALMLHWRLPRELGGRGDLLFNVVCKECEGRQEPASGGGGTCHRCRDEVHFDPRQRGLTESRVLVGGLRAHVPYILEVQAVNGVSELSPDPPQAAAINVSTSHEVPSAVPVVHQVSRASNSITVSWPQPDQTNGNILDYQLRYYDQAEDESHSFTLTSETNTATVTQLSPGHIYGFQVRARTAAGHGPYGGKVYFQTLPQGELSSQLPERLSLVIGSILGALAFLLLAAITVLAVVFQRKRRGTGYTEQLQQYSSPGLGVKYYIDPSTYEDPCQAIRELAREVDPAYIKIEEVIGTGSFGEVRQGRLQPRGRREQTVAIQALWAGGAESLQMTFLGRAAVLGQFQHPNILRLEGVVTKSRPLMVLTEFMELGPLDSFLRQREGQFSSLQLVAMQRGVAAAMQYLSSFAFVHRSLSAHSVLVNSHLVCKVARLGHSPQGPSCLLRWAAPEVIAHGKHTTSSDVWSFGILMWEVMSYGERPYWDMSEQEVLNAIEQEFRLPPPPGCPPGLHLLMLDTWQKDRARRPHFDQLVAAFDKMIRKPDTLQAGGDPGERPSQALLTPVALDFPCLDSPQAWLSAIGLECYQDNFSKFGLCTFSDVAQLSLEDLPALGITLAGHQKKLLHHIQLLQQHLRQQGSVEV
The conditions noted are these: EPHB6; for remaining activity at 1 µM: read-out: % of control at 1 µM.

Setting [10] is: 10 µM, read-out: % of control at 10 µM.

T4 sequence (Q8NEV4 whole entry): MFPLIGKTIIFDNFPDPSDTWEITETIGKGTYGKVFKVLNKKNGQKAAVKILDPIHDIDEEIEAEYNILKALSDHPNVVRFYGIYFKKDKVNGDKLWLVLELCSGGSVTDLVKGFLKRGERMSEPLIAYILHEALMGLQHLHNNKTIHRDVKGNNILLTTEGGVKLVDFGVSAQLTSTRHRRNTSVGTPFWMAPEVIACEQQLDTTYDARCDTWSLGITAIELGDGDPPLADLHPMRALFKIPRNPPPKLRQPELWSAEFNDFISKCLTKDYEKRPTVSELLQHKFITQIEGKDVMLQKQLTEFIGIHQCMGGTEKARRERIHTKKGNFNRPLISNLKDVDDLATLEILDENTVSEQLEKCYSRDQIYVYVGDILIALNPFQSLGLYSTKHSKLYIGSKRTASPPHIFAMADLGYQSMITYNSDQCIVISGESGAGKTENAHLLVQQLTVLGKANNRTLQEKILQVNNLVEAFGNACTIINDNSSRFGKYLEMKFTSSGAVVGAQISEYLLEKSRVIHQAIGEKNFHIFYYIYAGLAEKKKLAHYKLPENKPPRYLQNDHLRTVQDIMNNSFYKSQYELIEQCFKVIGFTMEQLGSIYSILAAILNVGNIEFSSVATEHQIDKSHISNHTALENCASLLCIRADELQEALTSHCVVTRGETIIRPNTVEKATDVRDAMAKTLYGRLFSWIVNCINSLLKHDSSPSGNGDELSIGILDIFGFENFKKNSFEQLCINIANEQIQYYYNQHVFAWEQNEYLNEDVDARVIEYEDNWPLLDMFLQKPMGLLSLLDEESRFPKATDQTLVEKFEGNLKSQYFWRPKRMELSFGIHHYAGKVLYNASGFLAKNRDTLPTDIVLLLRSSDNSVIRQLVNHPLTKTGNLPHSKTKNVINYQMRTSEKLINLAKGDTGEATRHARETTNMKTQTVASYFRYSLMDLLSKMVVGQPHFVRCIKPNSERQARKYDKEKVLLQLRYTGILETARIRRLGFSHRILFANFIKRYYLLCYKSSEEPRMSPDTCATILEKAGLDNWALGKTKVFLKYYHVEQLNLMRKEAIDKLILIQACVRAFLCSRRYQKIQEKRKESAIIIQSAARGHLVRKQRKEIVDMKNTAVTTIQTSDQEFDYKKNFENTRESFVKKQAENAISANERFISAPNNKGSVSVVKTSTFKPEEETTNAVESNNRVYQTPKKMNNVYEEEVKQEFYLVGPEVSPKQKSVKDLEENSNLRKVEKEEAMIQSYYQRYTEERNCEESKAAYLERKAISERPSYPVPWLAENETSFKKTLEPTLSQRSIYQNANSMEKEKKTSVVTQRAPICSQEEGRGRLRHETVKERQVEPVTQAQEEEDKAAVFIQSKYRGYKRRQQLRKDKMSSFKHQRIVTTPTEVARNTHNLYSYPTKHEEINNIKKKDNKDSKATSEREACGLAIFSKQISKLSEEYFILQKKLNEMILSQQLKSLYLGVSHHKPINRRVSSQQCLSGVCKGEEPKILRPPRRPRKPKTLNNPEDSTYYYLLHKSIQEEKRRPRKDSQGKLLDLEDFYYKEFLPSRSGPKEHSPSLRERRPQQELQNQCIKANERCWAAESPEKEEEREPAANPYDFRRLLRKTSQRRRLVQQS
T3 sequence (Q13131 whole entry): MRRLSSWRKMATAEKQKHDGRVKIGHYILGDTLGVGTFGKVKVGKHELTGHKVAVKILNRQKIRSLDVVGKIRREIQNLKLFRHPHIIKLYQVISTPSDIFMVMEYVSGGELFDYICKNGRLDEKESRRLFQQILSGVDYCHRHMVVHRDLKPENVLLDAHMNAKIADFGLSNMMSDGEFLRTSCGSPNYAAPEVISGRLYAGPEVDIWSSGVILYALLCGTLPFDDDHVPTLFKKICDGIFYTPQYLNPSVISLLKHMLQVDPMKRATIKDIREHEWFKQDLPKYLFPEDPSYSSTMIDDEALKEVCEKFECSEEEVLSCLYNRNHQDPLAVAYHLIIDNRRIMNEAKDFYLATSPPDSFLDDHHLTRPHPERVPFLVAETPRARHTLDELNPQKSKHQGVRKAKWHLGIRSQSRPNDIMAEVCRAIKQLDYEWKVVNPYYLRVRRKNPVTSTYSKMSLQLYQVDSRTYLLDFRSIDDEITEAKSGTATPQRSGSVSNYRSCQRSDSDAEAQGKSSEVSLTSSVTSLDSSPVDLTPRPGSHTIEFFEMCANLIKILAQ
T2 sequence (Q13233 whole entry): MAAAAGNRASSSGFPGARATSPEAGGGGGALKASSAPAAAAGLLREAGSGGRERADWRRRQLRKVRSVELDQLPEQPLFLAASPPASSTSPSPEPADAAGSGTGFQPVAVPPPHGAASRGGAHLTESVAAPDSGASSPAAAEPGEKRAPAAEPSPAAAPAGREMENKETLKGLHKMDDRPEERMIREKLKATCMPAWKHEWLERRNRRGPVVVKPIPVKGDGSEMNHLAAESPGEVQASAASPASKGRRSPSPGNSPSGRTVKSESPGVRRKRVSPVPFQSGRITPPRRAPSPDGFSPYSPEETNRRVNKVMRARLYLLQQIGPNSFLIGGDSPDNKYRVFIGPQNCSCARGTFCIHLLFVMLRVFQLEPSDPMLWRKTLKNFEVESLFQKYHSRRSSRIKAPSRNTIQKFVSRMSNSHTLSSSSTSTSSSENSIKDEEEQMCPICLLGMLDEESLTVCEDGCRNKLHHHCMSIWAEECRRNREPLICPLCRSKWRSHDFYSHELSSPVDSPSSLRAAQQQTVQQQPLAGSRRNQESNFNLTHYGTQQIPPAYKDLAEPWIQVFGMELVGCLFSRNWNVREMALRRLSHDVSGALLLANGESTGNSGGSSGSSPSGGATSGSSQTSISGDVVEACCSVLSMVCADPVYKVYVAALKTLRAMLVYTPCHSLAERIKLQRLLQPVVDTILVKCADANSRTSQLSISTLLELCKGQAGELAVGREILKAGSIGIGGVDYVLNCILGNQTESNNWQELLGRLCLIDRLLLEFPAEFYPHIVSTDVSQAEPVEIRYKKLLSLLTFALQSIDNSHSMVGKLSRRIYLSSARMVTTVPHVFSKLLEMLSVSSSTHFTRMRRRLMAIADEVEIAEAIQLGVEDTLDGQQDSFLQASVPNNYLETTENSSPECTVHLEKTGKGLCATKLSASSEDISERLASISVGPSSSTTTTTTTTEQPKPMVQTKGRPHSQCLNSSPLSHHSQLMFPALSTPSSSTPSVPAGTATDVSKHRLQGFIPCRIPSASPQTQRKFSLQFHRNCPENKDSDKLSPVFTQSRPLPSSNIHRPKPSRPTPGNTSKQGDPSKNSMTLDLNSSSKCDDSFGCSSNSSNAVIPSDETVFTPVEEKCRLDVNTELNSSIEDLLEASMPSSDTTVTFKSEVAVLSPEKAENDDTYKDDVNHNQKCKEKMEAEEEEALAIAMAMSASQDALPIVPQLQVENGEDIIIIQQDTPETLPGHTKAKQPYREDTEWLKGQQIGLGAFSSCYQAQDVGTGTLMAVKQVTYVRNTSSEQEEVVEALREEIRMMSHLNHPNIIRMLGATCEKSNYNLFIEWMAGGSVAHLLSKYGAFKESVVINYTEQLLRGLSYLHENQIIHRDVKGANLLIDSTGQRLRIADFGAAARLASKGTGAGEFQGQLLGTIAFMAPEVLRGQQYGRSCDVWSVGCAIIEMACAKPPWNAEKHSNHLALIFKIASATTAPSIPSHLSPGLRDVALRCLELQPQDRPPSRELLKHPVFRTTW
T1 sequence (P22455 22-802): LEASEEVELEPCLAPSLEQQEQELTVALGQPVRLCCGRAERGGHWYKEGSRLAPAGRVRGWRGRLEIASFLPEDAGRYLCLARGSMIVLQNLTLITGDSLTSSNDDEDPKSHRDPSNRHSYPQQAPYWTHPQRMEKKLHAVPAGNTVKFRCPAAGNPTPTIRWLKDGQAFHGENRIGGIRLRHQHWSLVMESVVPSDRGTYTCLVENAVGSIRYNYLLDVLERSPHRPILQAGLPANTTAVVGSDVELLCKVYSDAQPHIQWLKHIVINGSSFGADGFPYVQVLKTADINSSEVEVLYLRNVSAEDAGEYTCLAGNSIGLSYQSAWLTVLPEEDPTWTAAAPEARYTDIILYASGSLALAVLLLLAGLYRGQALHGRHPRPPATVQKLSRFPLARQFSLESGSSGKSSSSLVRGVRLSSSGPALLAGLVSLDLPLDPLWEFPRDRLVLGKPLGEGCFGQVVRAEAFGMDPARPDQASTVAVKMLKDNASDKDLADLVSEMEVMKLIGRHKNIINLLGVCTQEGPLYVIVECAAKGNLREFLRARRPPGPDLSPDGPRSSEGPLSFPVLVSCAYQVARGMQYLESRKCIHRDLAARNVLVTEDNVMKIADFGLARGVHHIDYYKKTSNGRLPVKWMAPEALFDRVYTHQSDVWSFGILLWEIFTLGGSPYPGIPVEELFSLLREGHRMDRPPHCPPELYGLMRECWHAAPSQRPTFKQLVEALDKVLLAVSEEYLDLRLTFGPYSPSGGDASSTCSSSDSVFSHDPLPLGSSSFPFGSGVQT
T5 sequence (Q13555 whole entry): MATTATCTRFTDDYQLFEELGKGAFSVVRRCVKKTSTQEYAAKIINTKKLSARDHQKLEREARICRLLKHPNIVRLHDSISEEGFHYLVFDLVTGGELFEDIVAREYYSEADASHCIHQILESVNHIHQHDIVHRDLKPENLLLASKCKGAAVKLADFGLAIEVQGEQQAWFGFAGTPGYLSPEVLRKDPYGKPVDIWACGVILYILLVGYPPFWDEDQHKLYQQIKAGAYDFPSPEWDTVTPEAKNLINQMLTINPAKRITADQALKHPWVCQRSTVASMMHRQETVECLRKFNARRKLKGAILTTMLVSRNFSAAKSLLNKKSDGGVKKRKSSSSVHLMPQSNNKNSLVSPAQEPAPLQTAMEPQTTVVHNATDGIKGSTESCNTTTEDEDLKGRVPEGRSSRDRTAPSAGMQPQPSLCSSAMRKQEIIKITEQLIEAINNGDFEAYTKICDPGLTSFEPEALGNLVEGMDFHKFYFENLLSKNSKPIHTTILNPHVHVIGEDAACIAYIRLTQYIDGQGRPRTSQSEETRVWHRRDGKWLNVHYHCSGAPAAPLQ

As for `Nc1cc(C(F)(F)F)c(-c2cc(N3CCOCC3)nc(N3CCOCC3)n2)cn1` [Buparlisib], the remaining activity at 1 µM at panel of 442 kinases [1] was found to be 100%; on panel of 442 kinases [2] it was 100%; at panel of 442 kinases [3], 96%; at panel of 442 kinases [4] it was 90%; at panel of 442 kinases [5], 100%; at panel of 442 kinases [6] it was 100%. Besides, the remaining activity at 1 µM at panel of 442 kinases [7] was found to be 97%; on panel of 442 kinases [8], 87%; on panel of 442 kinases [9], 76%. Moreover, the remaining activity at 10 µM at panel of 442 kinases [1] (setting [10]), at panel of 442 kinases [2] (setting [10]), at panel of 442 kinases [3] (setting [10]), at panel of 442 kinases [4] (setting [10]), on panel of 442 kinases [5] (setting [10]) and at panel of 442 kinases [6] (setting [10]) was 100% in each case. The remaining activity at 10 µM was found to be 100% on panel of 442 kinases [7] (10 µM, read-out: PRKCE (% of control at 10 µM)); 83% at panel of 442 kinases [8] (setting [10]); 89% on panel of 442 kinases [9] (setting [10]).
For `Cn1c(=O)n(-c2ccc(C(C)(C)C#N)cc2)c2c3cc(-c4cnc5ccccc5c4)ccc3ncc21` [Dactolisib, 2-methyl-2-[4-(3-methyl-2-oxo-8-quinolin-3-yl-2,3-dihydroimidazo[4,5-c]quinolin-1-yl)-phenyl] propionitrile], the remaining activity at 1 µM was found to be 89% at panel of 442 kinases [1]; 100% on panel of 442 kinases [2]; 97% at panel of 442 kinases [3]; 88% at panel of 442 kinases [4]; 88% at panel of 442 kinases [5]; 81% on panel of 442 kinases [6]. The results for the remaining activity at 1 µM at panel of 442 kinases [7], at panel of 442 kinases [8] and at panel of 442 kinases [9] were 78%, 100% and 100%, respectively.
Turning to `COc1ncc(-c2ccc3nccc(-c4ccnnc4)c3c2)cc1NS(=O)(=O)c1ccc(F)cc1F` [Omipalisib], the remaining activity at 1 µM on panel of 442 kinases [1], at panel of 442 kinases [2], at panel of 442 kinases [3], at panel of 442 kinases [4], on panel of 442 kinases [5] and at panel of 442 kinases [6] was 100% in each case. Also, the remaining activity at 1 µM on panel of 442 kinases [7] amounted to 100%; on panel of 442 kinases [8] it was 100%; at panel of 442 kinases [9], 57%.
Take `FC(F)c1nc2ccccc2n1-c1nc(N2CCOCC2)nc(N2CCOCC2)n1` [ZSTK474, 2-(difluoromethyl)-1-[4,6-di(4-morpholinyl)-1,3,5-triazin-2-yl]-1H-benzimidazole]: the remaining activity at 1 µM was found to be 100% at panel of 442 kinases [1]; 100% at panel of 442 kinases [2]; 100% on panel of 442 kinases [3]; 99% at panel of 442 kinases [4]; 100% on panel of 442 kinases [5]; 80% at panel of 442 kinases [6]. Moreover, the remaining activity at 1 µM is 100% on panel of 442 kinases [7], 60% at panel of 442 kinases [8] and 100% on panel of 442 kinases [9].
